Experiments:
[1] = system: malignant mucosal melanoma; assay: Clinical treatment of the mucosal melanoma patient; assay type: in vivo, human
Text: (§1) Blood and tissue samples from a mucosal melanoma, a patient having the following characteristics: • person, malignant mucosal melanoma. • Tissue site: resected from the groin lymph node
This was followed by additional cycles of nivolumab post-surgery as adjuvant therapy resulting in further PD.
The perfusion system could have anticipated the unfavorable prognosis associated with Nivolumab (which was what was originally prescribed by the doctor) within 1-2 weeks, potentially sparing the patient six months of ineffective treatment, side effects, and the high costs as well as the time in which further mutations occurred.

[2] = system: patient-derived mucosal melanoma cells; assay: Drug testing on patient-derived 3D tumor organoids in the perfusion system; assay type: cell-based, human; settings: 96-well 3D tumor organoids with patient-derived PBMCs, FIG. 7
Experimental: as §1
96-well 3D tumor organoids were generated from the tumor sample (i.e. tumor cells and microenvironment cells, blood vessels and PBMCs were created from the samples. The tumor organoids were cultured in a plate similar to that shown in FIG. 1A. Each treatment was tested on multiple 3D organoids, each treatment corresponding to a single sequence of connected cell wells.
Multiple treatments and combinations were tested on the patient-derived mucosal melanoma cells and the patient-derived PBMCs, as summarized in FIG. 7.

| Compound | clinical outcome ([1]; additional cycles post-surgery as adjuvant therapy) | clinical outcome ([1]; neoadjuvant therapy, 4 cycles) | response [2] | reduction in tumor size ([1]; within a two-week timeframe) | efficacy [2] |
| --- | --- | --- | --- | --- | --- |
| Nivolumab | further PD | progressive disease (PD) | 0% | – | – |
| CNC(=O)c1cc(Oc2ccc(NC(=O)Nc3ccc(Cl)c(C(F)(F)F)c3)c(F)c2)ccn1 [Regorafenib] | – | – | – | 50% | 93% |
| Pembrolizumab | – | – | 0% | – | – |
| Atezolizumab | – | – | 0% | – | – |

Reference: US20260028571A1, “BIOREACTORS FOR PERFUSING CELLS” (Ramot at Tel-Aviv University Ltd., priority 2023, published 2026)
